Source: patent US11970465B1, “Ethyl {[4-benzoyl-5-(3-fluorophenyl)-4H-1,2,4-triazol-3-yl]thio}acetate as an antimicrobial compound” (priority 2023, dated 2024)

What was measured:
[1] = tested on: different microbes (Bacillus cereus, Staphylococcus aureus, Pseudomonas aeruginosa, Escherichia coli, Aspergillus flavus, Chrysosporium keratinophilum); assay: agar plate disc-diffusion antimicrobial test; assay type: cell-based; conditions: disc wetted with 10 μL of 10 mg/mL in DMSO; 37° C., 48 h (72 h for fungi); inhibition zones measured in mm but not given
Protocol: The agar plate disc-diffusion method was applied. Sterilized filter papers (6 mm in diameter) were wetted with 10 μL of a solution of ethyl {[4-benzoyl-5-(3-fluorophenyl)-4H-1,2,4-triazol-3-yl]thio}acetate (III) to be tested, containing 10 mg/mL in DMSO, and the discs were allowed to air dry. The discs were then placed onto the surface of agar plates (nutrient agar for bacteria and Sabouraud's dextrose agar for fungi) seeded with the test organism. Each plate contained 15 mL of the agar medium, previously seeded with 0.2 mL of the broth culture of each organism pregrown for 18 h. The plates were incubated at 37° C. for 48 h, and 72 h for fungi. The inhibition zones was measured in mm. Discs impregnated with DMSO were used as a control, and its inhibition zone was subtracted from the tested compound actual inhibition zone. […] The antibacterial activity was screened against gram positive bacteria namely Bacillus cereus and Staphylococcus aureus and gram-negative bacterial strains namely Pseudomonas aeruginosa and Escherichia coli, while the antifungal activity was screened against Aspergillus flavus and Chrysosporium keratinophilum.

SMILES: CCOC(=O)CSc1nnc(-c2cccc(F)c2)n1C(=O)c1ccccc1 [III, ethyl {[4-benzoyl-5-(3-fluorophenyl)-4H-1,2,4-triazol-3-yl]thio}acetate]
- antimicrobial activities [1]: excellent antimicrobial activities
- melting point: 154 to 155 °C
